Where two headings read alike, the source gives them in different places.
Assays:
[1] = tested on: HCV genotype 1b (Con1) replicon in HUH-7 cells; experiment: HCV replicon luciferase reporter assay, genotype 1b; format: cell-based; settings: Hepatitis C virus, Huh-7, 72 h, HCV genotype 1b replicon luciferase, 3 days incubation
How it was run: (§1)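 Replicon inhibition for both genotypes was measured as Renilla luciferase signal (EnduRen, 7.5 μM final, 2 h) after 3-day, 37° C exposure of replicon-bearing HUH-7 cells in 4% FCS DMEM, 0.5% DMSO. The 1b construct carries S1179I; the 1a H77 construct carries P1496L and S2204I. Twenty-point, 3-fold dilutions were fitted four-parametrically for EC50, and CC50 was taken from multiplexed Cell Titer-Blue.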

[2] = tested on: HCV genotype 1a (H77 strain) replicon in HUH-7 cells; experiment: HCV replicon luciferase reporter assay, genotype 1a; format: cell-based; settings: Hepatitis C virus, Huh-7, 72 h, HCV genotype 1a replicon luciferase, 3 days incubation
How it was run: as §1

| SMILES | EC50 ([1]; read-out: LE_1b (EC50, range)) [nM] | EC50 ([2]; read-out: LE_1a (EC50, range)) [nM] | EC50 ([1]; read-out: LE_1b (EC50)) [nM] | EC50 ([2]; read-out: LE_1a (EC50)) [nM] |
| --- | --- | --- | --- | --- |
| C[C@H]1CC/C=C\[C@@H]2C[C@@]2(C(=O)NS(=O)(=O)C2CC2)NC(=O)[C@@H]2C[C@@H](Oc3nccc4c5c(ccc34)N(C)CCO5)CN2C(=O)[C@@H](NC(=O)c2ccc(N(C)C)cc2)[C@H](C)C1 [Compound 5289, (2R,6S,7R,9S,13aS,14aR,16aS,Z)—N-(cyclopropylsulfonyl)-6-(4-(dimethylamino)benzamido)-7,9-dimethyl-2-((4-methyl-3,4-dihydro-2H-[1,4]oxazino[2,3-f]isoquinolin-7-yl)oxy)-5,16-dioxo-1,2,3,5,6,7,8,9,10,11,13a,14,14a,15,16,16a-hexadecahydrocyclopropa[e]pyrrolo[1,2-a][1,4]diazacyclopentadecine-14a-carboxamide] | < 5.46 | 4.82 to 103 | – | – |
| C[C@@H]1CC/C=C\[C@@H]2C[C@@]2(C(=O)NS(=O)(=O)C2CC2)NC(=O)[C@@H]2C[C@@H](Oc3nccc4c5c(ccc34)N(C)CCO5)CN2C(=O)[C@@H](NC(=O)c2ccc(N(C)C)cc2)[C@H](C)C1 [Compound 5290, (2R,6S,7R,9R,13aS,14aR,16aS,Z)—N-(cyclopropylsulfonyl)-6-(4-(dimethylamino)benzamido)-7,9-dimethyl-2-((4-methyl-3,4-dihydro-2H-[1,4]oxazino[2,3-f]isoquinolin-7-yl)oxy)-5,16-dioxo-1,2,3,5,6,7,8,9,10,11,13a,14,14a,15,16,16a-hexadecahydrocyclopropa[e]pyrrolo[1,2-a][1,4]diazacyclopentadecine-14a-carboxamide] | < 5.46 | < 5.46 | 0.64 | 1.25 |
| C[C@H]1CC/C=C\[C@@H]2C[C@@]2(C(=O)NS(=O)(=O)C2CC2)NC(=O)[C@@H]2C[C@@H](Oc3nccc4c5c(ccc34)N(C)CCO5)CN2C(=O)[C@@H](NC(=O)O[C@@H]2C[C@@H]3C[C@@H]3C2)[C@H](C)C1 [Compound 5291, (1R,3r,5 S)-bicyclo[3.1.0]hexan-3-yl((2R,6S,7R,9S,13aS,14aR,16aS,Z)-14a-((cyclopropylsulfonyl)carbamoyl)-7,9-dimethyl-2-((4-methyl-3,4-dihydro-2H-[1,4]oxazino[2,3-f]isoquinolin-7-yl)oxy)-5,16-dioxo-1,2,3,5,6,7,8,9,10,11,13a,14,14a,15,16,16a-hexadecahydrocyclopropa[e]pyrrolo[1,2-a][1,4]diazacyclopentadecin-6-yl)carbamate] | < 5.46 | < 5.46 | – | – |
| C[C@@H]1CC/C=C\[C@@H]2C[C@@]2(C(=O)NS(=O)(=O)C2CC2)NC(=O)[C@@H]2C[C@@H](Oc3nccc4c5c(ccc34)N(C)CCO5)CN2C(=O)[C@@H](NC(=O)O[C@@H]2C[C@@H]3C[C@@H]3C2)[C@H](C)C1 [Compound 5292, (1R,3r,5S)-bicyclo[3.1.0]hexan-3-yl((2R,6S,7R,9R,13aS,14aR,16aS,Z)-14a-((cyclopropylsulfonyl)carbamoyl)-7,9-dimethyl-2-((4-methyl-3,4-dihydro-2H-[1,4]oxazino[2,3-f]isoquinolin-7-yl)oxy)-5,16-dioxo-1,2,3,5,6,7,8,9,10,11,13a,14,14a,15,16,16a-hexadecahydrocyclopropa[e]pyrrolo[1,2-a][1,4]diazacyclopentadecin-6-yl)carbamate] | < 5.46 | < 5.46 | – | – |
| C[C@H]1CC/C=C\[C@@H]2C[C@@]2(C(=O)NS(=O)(=O)C2(C)CC2)NC(=O)[C@@H]2C[C@@H](Oc3nccc4c5c(ccc34)N(C)CCO5)CN2C(=O)[C@@H](NC(=O)OC(C)(C)C)[C@H](C)C1 [Compound 5293, tert-butyl ((2R,6S,7R,9S,13aS,14aR,16aS,Z)-7,9-dimethyl-2-((4-methyl-3,4-dihydro-2H-[1,4]oxazino[2,3-f]isoquinolin-7-yl)oxy)-14a-(((1-methylcyclopropyl)sulfonyl)carbamoyl)-5,16-dioxo-1,2,3,5,6,7,8,9,10,11,13a,14,14a,15,16,16a-hexadecahydrocyclopropa[e]pyrrolo[1,2-a][1,4]diazacyclopentadecin-6-yl)carbamate] | < 5.46 | 4.82 to 103 | – | – |

From US9499550B2 (BRISTOL-MYERS SQUIBB COMPANY, priority 2012, dated 2016)
